Data reported in patent publication US20260138949A1, “NOVEL COMPOUND AS PHOSPHOLIPASE D INHIBITOR AND USE THEREOF” (UIF (UNIVERSITY INDUSTRY FOUNDATION), YONSEI UNIVERSITY, priority 2022, published 2026).

System: human colon cancer cell line DLD1
Assay: Cell cycle analysis (BrdU/7-AAD flow cytometry) in cancer cells
Type: cell-based
Conditions: DLD1, 5-FU 10 μM, 48 hours
Experimental: (§1) To observe cell cycle changes, normal colon epithelial cells (FHC) and human colon cancer cell line DLD1 were treated with compound 1-91 at 2 μM and the positive control 5-FU at 10 μM. After 48 hours, the cells were washed with PBS, harvested, and sequentially treated with bromodeoxyuridine (BrdU) and 7-aminoactinomycin D (7-AAD). The cells were then stained with an anti-BrdU antibody conjugated with fluorescein isothiocyanate (FITC) and analyzed using a flow cytometer.

Structure (SMILES)	cell cycle arrest, cancer cells
O=c1[nH]cc(F)c(=O)[nH]1 [Example 5-FU, reference compound]	at the Sub G1 phase in cancer cells

System: human colon cancer cell line (DLD1)
Assay: Apoptosis (annexin V-FITC) in cancer cells
Type: cell-based
Conditions: DLD1, 5-FU 10 μM, 48 hours
Experimental: (§2) To observe changes in apoptosis, normal colon epithelial cells (FHC) and human colon cancer cell line (DLD1) were treated with compound 1-91 at 2 μM and the positive control 5-FU at 10 μM. After 48 hours, the cells were washed with PBS, harvested, and analyzed for apoptosis using an annexin V-FITC apoptosis detection kit.

Structure (SMILES)	apoptosis, cancer cells
O=c1[nH]cc(F)c(=O)[nH]1 [Example 5-FU, reference compound]	induced apoptosis in both normal and cancer cells

System: phospholipase D1
Assay: PLD activity in HCT116 cells ([3H]phosphatidylbutanol, TLC)
Type: cell-based, human
Conditions: compound 10 μM, cells without the compound = 100%
Experimental: To evaluate the inhibitory effect of the compounds according to the present invention on phospholipase D1 activity, experiments were conducted as follows.
For the analysis of PLD activity in cells, human colon cancer cell line (HCT116) was cultured in a 6-well plate at 37° C. for 24 hours, washed twice with phosphate-buffered saline (PBS), and then replaced with medium containing [^3H]myristate and cultured for 24 hours. After the culture, the cells were washed three times with PBS, treated with 1-butanol, and the drug was added to a final concentration of 10 μM. The cells were trypsinized and suspended, and the amount of [^3H]phosphatidylbutanol produced in the cell suspension was measured and evaluated for PLD activity using thin layer chromatography (TLC), and the results are shown in Table 1 below.
The Remaining activity % at 10 μM in Table 1 is calculated by setting the amount of [^3H]phosphatidylbutanol produced in cells without the compound as 100% and calculating the amount of [^3H]phosphatidylbutanol produced in cells treated with the compound as a percentage. Therefore, the lower the value of Remaining activity %, the higher the PLD inhibitory activity.

Structure (SMILES)	Remaining activity % at 10 μM
COc1ccc(NC(=O)c2cc3ccccc3[nH]2)cc1OC [Example 1-87, N-(3,4-dimethoxyphenyl)-1H-indole-2-carboxamide]	71.67%
COC(=O)c1ccc(CNC(=O)c2cc3ccccc3[nH]2)cc1 [Example 1-88, methyl 4-((1H-indole-2-carboxamido)methyl)benzoate]	37.79%
O=C(Nc1ccc(F)cc1)c1cc2cc(F)ccc2[nH]1 [Example 1-90, 5-fluoro-N-(4-fluorophenyl)-1H-indole-2-carboxamide]	48.64%
O=C(Nc1cc(F)cc(F)c1)c1cc2cc(F)ccc2[nH]1 [Example 1-92, N-(3,5-difluorophenyl)-5-fluoro-1H-indole-2-carboxamide]	56.88%
COc1ccc(NC(=O)c2cc3cc(F)ccc3[nH]2)cc1OC [Example 1-93, N-(3,4-dimethoxyphenyl)-5-fluoro-1H-indole-2-carboxamide]	58.09%
COc1ccc(CNC(=O)c2cc3cc(F)ccc3[nH]2)cc1OC [Example 1-94, N-(3,4-dimethoxybenzyl)-5-fluoro-1H-indole-2-carboxamide]	53.46%
O=C(Nc1cccc(C(F)(F)F)c1)c1cc2cc(F)ccc2[nH]1 [Example 1-95, 5-fluoro-N-(3-(trifluoromethyl)phenyl)-1H-indole-2-carboxamide]	52.08%
COc1cc(NC(=O)c2cc3cc(F)ccc3[nH]2)cc(OC)c1 [Example 1-96, N-(3,5-dimethoxyphenyl)-5-fluoro-1H-indole-2-carboxamide]	98.38%
O=C(Nc1ccccc1F)c1cc2cc(F)ccc2[nH]1 [Example 1-97, 5-fluoro-N-(2-fluorophenyl)-1H-indole-2-carboxamide]	not active
O=C(Nc1cccc(F)c1)c1cc2cc(F)ccc2[nH]1 [Example 1-98, 5-fluoro-N-(3-fluorophenyl)-1H-indole-2-carboxamide]	76.66%
O=C(Nc1cc(C(F)(F)F)cc(C(F)(F)F)c1)c1cc2cc(Cl)ccc2[nH]1 [Example 1-99, N-(3,5-bis(trifluoromethyl)phenyl)-5-chloro-1H-indole-2-carboxamide]	not active
COC(=O)c1ccc2[nH]c(C(=O)Nc3cc(C(F)(F)F)cc(C(F)(F)F)c3)cc2c1 [Example 1-100, methyl 2-((3,5-bis(trifluoromethyl)phenyl)carbamoyl)-1H-indole-5-carboxylate]	46.12%
O=C(O)c1ccc2[nH]c(C(=O)Nc3cc(C(F)(F)F)cc(C(F)(F)F)c3)cc2c1 [Example 1-101, 2-((3,5-bis(trifluoromethyl)phenyl)carbamoyl)-1H-indole-5-carboxylic acid]	57.61%
O=C(Nc1cc(C(F)(F)F)cc(C(F)(F)F)c1)c1cc2cc(C(F)(F)F)ccc2[nH]1 [Example 1-102, N-(3,5-bis(trifluoromethyl)phenyl)-5-(trifluoromethyl)-1H-indole-2-carboxamide]	35.11%
Cc1cc(C)cc(NC(=O)c2cc3cc(F)ccc3[nH]2)c1 [Example 1-103, N-(3,5-dimethylphenyl)-5-fluoro-1H-indole-2-carboxamide]	75.43%
Cc1cc(C)cc(NC(=O)c2cc3ccccc3[nH]2)c1 [Example 1-104, N-(3,5-dimethylphenyl)-1H-indole-2-carboxamide]	66.73%

Structure (SMILES)	Remaining activity % at 10 μM
O=C(Nc1ccc(O)c(O)c1)c1c[nH]c2ccccc12 [Example 1-105, N-(3,4-dihydroxyphenyl)-1H-indole-3-carboxamide]	39.17%
O=C(Cc1c[nH]c2ccccc12)Nc1ccc(O)c(O)c1 [Example 1-106, N-(3,4-dihydroxyphenyl)-2-(1H-indol-3-yl)acetamide]	62.00%
O=C(Cc1c[nH]c2ccccc12)NCc1ccc(O)c(O)c1 [Example 1-107, N-(3,4-dihydroxybenzyl)-2-(1H-indol-3-yl)acetamide]	88.12%
O=C(CCc1c[nH]c2ccccc12)Nc1ccc(O)c(O)c1 [Example 1-108, N-(3,4-dihydroxyphenyl)-3-(1H-indol-3-yl)propanamide]	76.29%
O=C(Nc1ccc(O)c(O)c1)c1cc2ccccc2[nH]1 [Example 1-109, N-(3,4-dihydroxyphenyl)-1H-indole-2-carboxamide]	not active
O=C(Nc1ccc(O)c(O)c1)c1cc2cc(F)ccc2[nH]1 [Example 1-110, N-(3,4-dihydroxyphenyl)-5-fluoro-1H-indole-2-carboxamide]	28.85%
O=C(NCc1ccc(O)c(O)c1)c1cc2cc(F)ccc2[nH]1 [Example 1-111, N-(3,4-dihydroxybenzyl)-5-fluoro-1H-indole-2-carboxamide]	54.41%
O=C(Nc1cc(O)cc(O)c1)c1cc2cc(F)ccc2[nH]1 [Example 1-112, N-(3,5-dihydroxyphenyl)-5-fluoro-1H-indole-2-carboxamide]	not active
O=C(Nc1cc(C(F)(F)F)cc(C(F)(F)F)c1)c1cc2cc(F)c(F)cc2[nH]1 [Example 1-113, N-(3,5-bis(trifluoromethyl)phenyl)-5,6-difluoro-1H-indole-2-carboxamide]	42.48%
Cn1c(C(=O)Nc2cc(C(F)(F)F)cc(C(F)(F)F)c2)cc2cc(F)c(F)cc21 [Example 1-114, N-(3,5-bis(trifluoromethyl)phenyl)-5,6-difluoro-1-methyl-1H-indole-2-carboxamide]	48.24%
O=C(Cc1c[nH]c2ccccc12)OCc1ccc([N+](=O)[O-])cc1 [Example 1-115, 4-nitrobenzyl 2-(1H-indol-3-yl)acetate]	55.24%
COc1ccc(COC(=O)c2cc3ccccc3[nH]2)cc1 [Example 1-116, 4-methoxybenzyl 1H-indole-2-carboxylate]	52.66%
COc1ccc(COC(=O)CCCc2c[nH]c3ccccc23)cc1 [Example 1-117, 4-methoxybenzyl 4-(1H-indol-3-yl)butanoate]	72.65%
O=C(Oc1cc(C(F)(F)F)cc(C(F)(F)F)c1)c1cc2cc(F)ccc2[nH]1 [Example 1-118, 3,5-bis(trifluoromethyl)phenyl 5-fluoro-1H-indole-2-carboxylate]	49.17%
O=C(CCCC[C@@H]1SC[C@@H]2NC(=O)N[C@@H]21)NNC(=O)c1ccc2[nH]c(C(=O)Nc3cc(C(F)(F)F)cc(C(F)(F)F)c3)cc2c1 [Example 1-119, N-(3,5-bis(trifluoromethyl)phenyl)-5-(2-(5-((3aS,4S,6aR)-2-oxohexahydro-1H-thieno[3,4-d]imidazol-4-yl)pentanoyl)hydrazine-1-carbonyl)-1H-indole-2-carboxamide]	27.26%

Same assay, conditions: compound 10 μM, cells without the compound = 100%, 10 µM

Structure (SMILES)	Remaining activity % at 10 μM [%]
O=C(NNc1ccc(Cl)c(Cl)c1)c1cc2ccccc2[nH]1 [Example 1-89, N′-(3,4-dichlorophenyl)-1H-indole-2-carbohydrazide]	83.22

System: normal colon epithelial cells (FHC)
Assay: Cell cycle analysis (BrdU/7-AAD flow cytometry) in normal cells
Type: cell-based
Conditions: 5-FU 10 μM, 48 hours
Experimental: as §1

Structure (SMILES)	cell cycle arrest, normal cells
O=c1[nH]cc(F)c(=O)[nH]1 [Example 5-FU, reference compound]	arrested the cell cycle at the G0/G1 phase in normal cells

System: normal colon epithelial cells (FHC)
Assay: Apoptosis (annexin V-FITC) in normal cells
Type: cell-based
Conditions: 5-FU 10 μM, 48 hours
Experimental: as §2

Structure (SMILES)	apoptosis, normal cells
O=c1[nH]cc(F)c(=O)[nH]1 [Example 5-FU, reference compound]	induced apoptosis in both normal and cancer cells
